Experimental data as given in patent US9796676B2, “Honeybee repellents and uses thereof” (Inscent, Inc., priority 2013, dated 2017).

Legend:
[1] = system: Apis mellifera Carniolan foraging worker honeybees; assay: Proboscis extension response (PER) assay with bees conditioned to 2-heptanone; type: in vivo; details: 0.5% compound in Triton X-100/water on filter paper, 4 s exposure; only bees giving PER with 2-heptanone and not with water or 15% Triton X-100 controls counted
Method: To determine whether a living honeybee can recognize a candidate compound, these compounds were tested using a proboscis extension response (PER) assay using classical conditioning approaches. Proboscis extension response conditioning is a case of appetitive learning, in which bees learn to associate odor stimuli with sucrose reward in the laboratory. In this case, bees were conditioned to produce a PER to 2-heptanone as the conditioned stimulus and a sugar reward as the unconditioned stimulus. These trained bees were then exposed to an odor pulse of a candidate compound to test whether a candidate compound would also produce a PER. If the candidate compound “mimics” 2-heptanone then the honeybee will extend its proboscis.
For conditioning procedures, Apis mellifera Carniolan foraging worker honeybees were obtained from a local apiary (typically 60 bees per shipment). The honeybees were held overnight in insect cages with food and water freely available, in an environmentally controlled room on a light cycle similar to the ambient cycle at the time of the assay.
For conditioning procedures, all tests were done in an odorant delivery apparatus set inside a fume hood. The apparatus comprised a set of open-ended, horizontal, 3 cm diameter by 10 cm long plastic tubes. Each tube was designed where a honeybee could be positioned at the distal end of a tube, with the opening at the other end of the tube located proximal to an inlet of the fume hood. To deliver an odorant, room air was pumped by a diaphragm pump through a particle filter via 0.25 inch plastic tubing at approximately 0.7 m/sec. The air flow passes into the headspace above an odorant (0.5% [v/v] 2-heptanone dissolved in odorless light paraffin oil) contained in a 100 mL bottle. The headspace air then passes through another plastic tube to a manifold of 4-way valves, each of which was attached near the proximal end of a plastic tube containing a bee. Each bee was exposed separately for a desired time period to the odorant by opening and closing the appropriate valve. When each valve was closed, the odor was flushed away immediately by the continuous fume hood air stream.
To train a honeybee to respond to a conditioned and unconditioned stimuli, bees were placed, without anesthesia, in individual 1.5 mL micro-centrifuge holding tubes and held overnight without access to food or water. The holding tubes containing the starved bees were placed in racks in groups of eight. One rack at a time was placed behind the odorant delivery apparatus so that each bee's head is centered at the distal end of a horizontal plastic tube. Each bee was exposed to the 2-heptanone odorant alone for four seconds, and then while being fed an 80% sucrose solution for and additional three seconds. The sucrose solution was delivered on a piece of saturated filter paper held in forceps. […] Positive and negative responses were recorded. A positive PER was scored when a bee extended its proboscis before the sucrose appeared. In a typical trial, 48 individual bees were subjected to conditioning.
After conditioning, honeybees were tested with the candidate compounds the same day or on the following day or, most commonly, both. When held overnight, bees were fed with sucrose and kept in their holding tubes. When tested the day after training, bees were given one or more rounds of conditioning with 2-heptatone to refresh their memories. Candidate compounds stocks were made at 5% (w/v) in polyoxyethylene octyl phenyl ether (TRITON® X-100), a non-ionic detergent/surfactant, and stored at 4° C. […] Test solutions were made fresh daily by mixing stock solutions with water for a final compound concentration of 0.5%. A solution of 0.5% 2-heptanone in paraffin oil was used as a positive control.

OBP2 = assay: Fluorescent-quench ligand-protein-binding assay (OBP2 binding); parameters: species or system Apis mellifera
From the text: To identify a honeybee repellent disclosed herein, candidate compounds were screened based upon the fact that 2-heptanone is an established repellent of bees. 2-heptanone is thought to mediate its behavioral response through binding to a specific odorant-binding protein called OBP2. […] Such assays are generally known in the art. See, e.g., Briand, et al., Ligand-Binding Properties and Structural Characterization of a Novel Rat Odorant-Binding Protein Variant, Eur. J. Biochem. 267(10): 3079-3089 (2000); Briand, et al., Ligand Binding and Physico-Chemical Properties of ASP2, A Recombinant Odorant-Binding Protein From Honeybee (Apis mellifera L.), Eur. J. Biochem. 268(3): 752-760 (2001); Briand, et al., Characterization of a Chemosensory Protein (ASP3c) from Honeybee (Apis mellifera L.) as a Brood Pheromone Carrier, Eur. J. Biochem. 269(18): 4586-4596 (2002), each of which is hereby incorporated by reference in its entirety.

SMILES: CCOC(=O)CSc1nc2c(c(=O)n1-c1ccccc1)C1(CCCC1)Cc1ccccc1-2 [compound 71]
- 2-heptanone positive bees testing positive to compound [1]: 19.1%
- OBP2 binding characteristic of compound (OBP2): Moderate (Moderate, indicates that 50% or less of the compound bound to OBP2.)

SMILES: O=C1CSC(=O)N1CC(O)Cn1c2ccc(Cl)cc2c2cc(Cl)ccc21 (centres unmarked) [compound 72]
- 2-heptanone positive bees testing positive to compound [1]: 2.3%
- OBP2 binding characteristic of compound (OBP2): Moderate (Moderate, indicates that 50% or less of the compound bound to OBP2.)

SMILES: O=C(c1ccccc1)N1N=C(C(F)(F)F)CC1(O)c1ccccc1O (centres unmarked) [compound 73]
- 2-heptanone positive bees testing positive to compound [1]: 8.3%
- OBP2 binding characteristic of compound (OBP2): Moderate (Moderate, indicates that 50% or less of the compound bound to OBP2.)

SMILES: c1ccn(-c2ncnc3sc4c(c23)CCCC4)c1 [compound 77]
- 2-heptanone positive bees testing positive to compound [1]: 14.3%
- OBP2 binding characteristic of compound (OBP2): Moderate (Moderate, indicates that 50% or less of the compound bound to OBP2.)

SMILES: CCOC(=O)c1c(-c2ccccc2)csc1NC(=S)NC(C)=O [compound 78]
- 2-heptanone positive bees testing positive to compound [1]: 7.7%
- OBP2 binding characteristic of compound (OBP2): Moderate (Moderate, indicates that 50% or less of the compound bound to OBP2.)

SMILES: Cc1cc(C)c(O)c(N=Cc2cc(I)cc(I)c2O)c1 [compound 82]
- 2-heptanone positive bees testing positive to compound [1]: 6.4%
- OBP2 binding characteristic of compound (OBP2): Moderate (Moderate, indicates that 50% or less of the compound bound to OBP2.)

SMILES: COc1ccc2ccccc2c1C=Nc1cc(C)ccc1C [compound 84]
- 2-heptanone positive bees testing positive to compound [1]: 27.9%
- OBP2 binding characteristic of compound (OBP2): Moderate (Moderate, indicates that 50% or less of the compound bound to OBP2.)

SMILES: O=C1NC(=S)SC1=Cc1ccc(N2CCOCC2)c([N+](=O)[O-])c1 [compound 85]
- 2-heptanone positive bees testing positive to compound [1]: 18.0%
- OBP2 binding characteristic of compound (OBP2): Moderate (Moderate, indicates that 50% or less of the compound bound to OBP2.)

SMILES: Oc1ccc(Br)cc1C=Nc1ccc(NCc2ccccc2)cc1 [compound 87]
- 2-heptanone positive bees testing positive to compound [1]: 9.5%
- OBP2 binding characteristic of compound (OBP2): Moderate (Moderate, indicates that 50% or less of the compound bound to OBP2.)

SMILES: O=C1c2ccccc2C(=O)c2c1ccc1c(=O)n(C3CCCCC3)[nH]c21 [compound 88]
- 2-heptanone positive bees testing positive to compound [1]: 14.3%
- OBP2 binding characteristic of compound (OBP2): Moderate (Moderate, indicates that 50% or less of the compound bound to OBP2.)

SMILES: Cc1cc(C)c2ccc(C=Cc3ccccc3N)nc2c1O [compound 90]
- 2-heptanone positive bees testing positive to compound [1]: 17.0%
- OBP2 binding characteristic of compound (OBP2): Moderate (Moderate, indicates that 50% or less of the compound bound to OBP2.)

SMILES: C=CCN1C(=O)C(=Cc2cccc([N+](=O)[O-])c2O)SC1=S [compound 91]
- 2-heptanone positive bees testing positive to compound [1]: 17.3%
- OBP2 binding characteristic of compound (OBP2): Moderate (Moderate, indicates that 50% or less of the compound bound to OBP2.)

SMILES: C(=NN(c1ccccc1)c1ccccc1)c1ccncc1 [compound 92]
- 2-heptanone positive bees testing positive to compound [1]: 7.0%
- OBP2 binding characteristic of compound (OBP2): Moderate (Moderate, indicates that 50% or less of the compound bound to OBP2.)

SMILES: O=C1CCC(=O)N1CC(O)Cn1c2ccc(Br)cc2c2cc(Br)ccc21 (centres unmarked) [compound 93]
- 2-heptanone positive bees testing positive to compound [1]: 14.0%
- OBP2 binding characteristic of compound (OBP2): Moderate (Moderate, indicates that 50% or less of the compound bound to OBP2.)

SMILES: NC(=O)c1ccccc1NC(=O)c1sc2ccccc2c1Cl [compound 94]
- 2-heptanone positive bees testing positive to compound [1]: 16.7%
- OBP2 binding characteristic of compound (OBP2): Moderate (Moderate, indicates that 50% or less of the compound bound to OBP2.)

SMILES: CC(C)CCn1c(=O)c(C(=O)NCc2ccco2)c(O)c2ccccc21 [compound 95]
- 2-heptanone positive bees testing positive to compound [1]: 7.3%
- OBP2 binding characteristic of compound (OBP2): Moderate (Moderate, indicates that 50% or less of the compound bound to OBP2.)

SMILES: Oc1c(I)cc2oc3c(c2c1C=Nc1nc[nH]n1)CCCC3 [compound 96]
- 2-heptanone positive bees testing positive to compound [1]: 28.6%
- OBP2 binding characteristic of compound (OBP2): Moderate (Moderate, indicates that 50% or less of the compound bound to OBP2.)

SMILES: CCN(CC)C(=O)c1c(NC(=O)c2ccco2)sc2c1CCCCC2 [compound 97]
- 2-heptanone positive bees testing positive to compound [1]: 21.1%
- OBP2 binding characteristic of compound (OBP2): Moderate (Moderate, indicates that 50% or less of the compound bound to OBP2.)

SMILES: Cc1ccc(NC(=O)c2c(NC(=O)c3ccco3)sc3c2CCCCC3)cc1 [compound 98]
- 2-heptanone positive bees testing positive to compound [1]: 21.6%
- OBP2 binding characteristic of compound (OBP2): Moderate (Moderate, indicates that 50% or less of the compound bound to OBP2.)

SMILES: O=C(Nc1sc2c(c1C(=O)N1CCCCC1)CCCCC2)c1ccccc1 [compound 99]
- 2-heptanone positive bees testing positive to compound [1]: 29.0%
- OBP2 binding characteristic of compound (OBP2): Moderate (Moderate, indicates that 50% or less of the compound bound to OBP2.)

SMILES: CCOC(=O)c1ccc(N2NC(=O)C(=Cc3ccc(N4CCOCC4)cc3)C2=O)cc1 [compound 101]
- 2-heptanone positive bees testing positive to compound [1]: 20.9%
- OBP2 binding characteristic of compound (OBP2): Moderate (Moderate, indicates that 50% or less of the compound bound to OBP2.)

SMILES: Cc1[nH]c2ccccc2c1C=NNC(=O)c1cccc(I)c1 [compound 103]
- 2-heptanone positive bees testing positive to compound [1]: 32.4%
- OBP2 binding characteristic of compound (OBP2): Moderate (Moderate, indicates that 50% or less of the compound bound to OBP2.)

SMILES: O=C1C=Cc2ccccc2C1=NNc1ccc2c(c1)OCCO2 [compound 105]
- 2-heptanone positive bees testing positive to compound [1]: 24.3%
- OBP2 binding characteristic of compound (OBP2): Moderate (Moderate, indicates that 50% or less of the compound bound to OBP2.)

SMILES: Clc1ccccc1-c1nnc(SCc2ccccc2)o1 [compound 106]
- 2-heptanone positive bees testing positive to compound [1]: 7.3%
- OBP2 binding characteristic of compound (OBP2): Moderate (Moderate, indicates that 50% or less of the compound bound to OBP2.)

SMILES: COc1ccccc1NC(=S)NC(=O)c1ccc(F)cc1 [compound 107]
- 2-heptanone positive bees testing positive to compound [1]: 5.1%
- OBP2 binding characteristic of compound (OBP2): Moderate (Moderate, indicates that 50% or less of the compound bound to OBP2.)

SMILES: O=c1nc(C(F)(F)F)cc(C=Cc2ccc(-c3cccc(Cl)c3)o2)[nH]1 [compound 108]
- 2-heptanone positive bees testing positive to compound [1]: 16.2%
- OBP2 binding characteristic of compound (OBP2): Moderate (Moderate, indicates that 50% or less of the compound bound to OBP2.)

SMILES: Nc1cccc2nc3c4cccc5cccc(c(=O)n3c12)c54 [compound 109]
- 2-heptanone positive bees testing positive to compound [1]: 12.1%
- OBP2 binding characteristic of compound (OBP2): Moderate (Moderate, indicates that 50% or less of the compound bound to OBP2.)

SMILES: O=C(C=CNc1ccccc1O)c1ccc(Br)cc1 [compound 110]
- 2-heptanone positive bees testing positive to compound [1]: 31.4%
- OBP2 binding characteristic of compound (OBP2): Moderate (Moderate, indicates that 50% or less of the compound bound to OBP2.)

SMILES: O=C1CSC(=CC(=O)c2ccc(Cl)cc2)N1 [compound 111]
- 2-heptanone positive bees testing positive to compound [1]: 30.6%
- OBP2 binding characteristic of compound (OBP2): Moderate (Moderate, indicates that 50% or less of the compound bound to OBP2.)

SMILES: O=c1c2cc(O)cc3cccc(c32)c2nc3ccc4c5c(ccc(c35)n12)CC4 [compound 112]
- 2-heptanone positive bees testing positive to compound [1]: 44.4%
- OBP2 binding characteristic of compound (OBP2): Moderate (Moderate, indicates that 50% or less of the compound bound to OBP2.)

SMILES: O=C(NC(=S)Nc1cccc2cccnc12)c1cccs1 [compound 117]
- OBP2 binding characteristic of compound (OBP2): Moderate (Moderate, indicates that 50% or less of the compound bound to OBP2.)

SMILES: COc1cccc(C=C2SC(=N)NC2=O)c1OCc1ccc(Cl)cc1Cl [compound 118]
- OBP2 binding characteristic of compound (OBP2): Moderate (Moderate, indicates that 50% or less of the compound bound to OBP2.)
